Drawing on patent publication US7253189B2, “Cannabinoid receptor ligands” (Schering Corporation, priority 2002, dated 2007), this text covers Ki for nine compounds.

For one assay, the target named is T1, recombinant human cannabinoid CB2 receptor (Homo sapiens, UniProt P34972).
T1 construct: purchased Receptor Biology RB-HCB2
T1 sequence (P34972 whole entry): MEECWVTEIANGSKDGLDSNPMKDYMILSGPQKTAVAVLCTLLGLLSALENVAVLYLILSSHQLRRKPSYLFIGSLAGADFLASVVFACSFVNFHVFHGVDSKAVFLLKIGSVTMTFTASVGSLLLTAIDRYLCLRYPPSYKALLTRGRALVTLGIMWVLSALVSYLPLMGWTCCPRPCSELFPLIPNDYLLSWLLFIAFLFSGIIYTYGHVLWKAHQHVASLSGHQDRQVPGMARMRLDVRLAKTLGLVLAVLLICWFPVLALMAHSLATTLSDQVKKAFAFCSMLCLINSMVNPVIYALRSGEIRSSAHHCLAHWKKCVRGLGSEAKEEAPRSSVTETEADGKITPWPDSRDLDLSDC
The assay can be described thus: competition with [3H] CP-55,940 for binding to recombinant cannabinoid CB2 receptor membranes.
Conditions: not given
As for the experimental part: Potential cannabinoid receptor ligands were screened for the ability to compete with [^3H] CP-55,940 for binding to recombinant cannabinoid receptors. Test compounds were serially diluted in Diluent Buffer (50 mM Tris pH 7.1, 1 mM EDTA, 3 mM MgCl2, 0.1% BSA, 10% DMSO, 0.36% methyl cellulose (Sigma M-6385)) from stocks prepared in 100% DMSO. Aliquots (10 μl) were transferred into 96-well microtiter plates. Membrane preparations of recombinant human cannabinoid CB2 receptor (Receptor Biology #RB-HCB2) or recombinant human cannabinoid CB1 receptor (Receptor Biology #RB-HCB1) were diluted to 0.3 mg/ml in Binding Buffer (50 mM Tris pH 7.2, 1 mM EDTA, 3 mM MgCl2, 0.1% BSA). Aliquots (50 μl) were added to each well of the microtiter plate. The binding reactions were initiated by addition of [^3H] CP-55,940 (New England Nuclear # NET 1051; specific activity=180 Ci/mmol available from New England Nuclear) to each well of the microtiter plate. Each 100 μl reaction mixture contained 0.48 nM [^3H] CP-55,940, 15 ug membrane protein in binding buffer containing 1% DMSO and 0.036% methyl cellulose. Following incubation for 2 hours at room temperature, the reaction mixtures were filtered through 0.5% polyethylenimine-coated GF/C filter plates (UniFilter-96, Packard) with a TomTec Mark 3U Harvester (Hamden, Conn.). The filter plate was washed 5 times with binding buffer, rotated 180°, then re-washed 5 times with binding buffer. Bound radioactivity was quantitated following addition of 30 μl of Packard Microscint 20 scintillant in a Packard TopCount NXT microplate scintillation counter. Non-linear regression analysis of the resulting data was performed using Prism 2.0b (from GraphPad, San Diego, Calif.).
The activities (potencies) for the compounds of the invention are determined by measuring their Ki values.
Consider `CS(=O)(=O)NC1CCc2cc(C(=O)c3ccc(OC(F)(F)F)cc3S(=O)(=O)c3ccccc3F)ccc21` (stereo not drawn) [Compound 2], for which the inhibition constant (Ki) was less than 20 nM.
Same read-out and setting: then `CS(=O)(=O)NC1CCc2cc(S(=O)(=O)c3ccc(C4CC4)cc3S(=O)(=O)c3ccccn3)ccc21` (stereo not drawn) [Compound 9], with less than 20 nM.

The assay is the same for the next values; noted with them: 0.48 nM [3H] CP-55,940, 15 ug membrane protein, 2 hours at room temperature; read-out: CB2 Ki.
Turning to `CS(=O)(=O)NC1CCc2cc(S(=O)(=O)c3cc4ccccc4n3S(=O)(=O)c3ccccn3)ccc21` (stereo not drawn) [Compound 10], the inhibitory constant (Ki) was less than 20 nM.
Still for that read-out and setting: then `CS(=O)(=O)NC1CCc2cc(S(=O)(=O)c3ccc(Cl)cc3S(=O)(=O)c3ccccn3)ccc21` (stereo not drawn) [Compound 8], with less than 20 nM; and `O=C(NC1CCc2cc(S(=O)(=O)c3ccc(C4CC4)cc3S(=O)(=O)c3ccccn3)ccc21)C(F)(F)F` (stereo not drawn) [Compound 19], with less than 20 nM; and `COc1ccc(S(=O)(=O)c2ccc3c(c2)CCC3NS(=O)(=O)C(F)(F)F)c(S(=O)(=O)c2ccccc2F)c1` (stereo not drawn) [Compound 5], with less than 20 nM.
For the compound `O=C(NC1CCc2cc(Cc3ccc(OC(F)(F)F)cc3S(=O)(=O)c3ccccc3F)ccc21)C(F)(F)F` (stereo not drawn) [Compound 23], the inhibitory constant (Ki) is less than 20 nM.
Same read-out and setting: then `O=S(=O)(c1ccc2c(c1)CCC2NS(=O)(=O)C(F)(F)F)c1ccc(C2CC2)cc1S(=O)(=O)c1ccccn1` (stereo not drawn) [Compound 12], with less than 20 nM; and `O=S(=O)(c1ccc2c(c1)CCC2NS(=O)(=O)C(F)(F)F)c1ccc(Cl)cc1S(=O)(=O)c1ccccc1F` (stereo not drawn) [Compound 6], with less than 20 nM.

As usually defined, the Ki is the dissociation constant of the complex between target and ligand, obtained from inhibition or displacement.
